Assay results: patent publication US8022248B2, “Substituted acids for the treatment of respiratory diseases” (AstraZeneca AB, priority 2004, dated 2011)
pIC50: −log10 of the molar value.

Target: T1, rhCRTh2 (Homo sapiens, UniProt Q9Y5Y4)
T1 construct: expressed in transfected cells; host or cells: HEK cells (membrane preparation)
T1 sequence (Q9Y5Y4 1-395): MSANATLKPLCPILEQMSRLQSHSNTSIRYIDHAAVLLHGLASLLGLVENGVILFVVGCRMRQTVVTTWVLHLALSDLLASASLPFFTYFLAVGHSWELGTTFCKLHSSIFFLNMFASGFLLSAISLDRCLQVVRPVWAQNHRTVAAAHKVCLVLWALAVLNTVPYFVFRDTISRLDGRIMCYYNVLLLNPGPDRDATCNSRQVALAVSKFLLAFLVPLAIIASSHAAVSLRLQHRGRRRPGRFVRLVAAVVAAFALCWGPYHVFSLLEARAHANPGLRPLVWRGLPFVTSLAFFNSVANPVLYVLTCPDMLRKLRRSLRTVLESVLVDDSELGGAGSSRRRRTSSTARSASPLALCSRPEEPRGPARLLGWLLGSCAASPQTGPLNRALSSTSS
Assay: Ligand binding assay: [3H]PGD2 binding to HEK cell membranes containing CRTh2 (SPA beads)
Conditions: [3H]PGD2 displacement, HEK cell membranes expressing rhCRTh2/Gα16, 2 hours room temperature
Method: [^3H]PGD2 was purchased from Perkin Elmer Life Sciences with a specific activity of 100-210 Ci/mmol. All other chemicals were of analytical grade.
HEK cells expressing rhCRTh2/Gα16 were routinely maintained in DMEM containing 10% Foetal Bovine Serum (HyClone), 1 mg/ml geneticin, 2 mM L-glutamine and 1% non-essential amino acids. For the preparation of membranes, the adherent transfected HEK cells were grown to confluence in two layer tissue culture factories (Fisher, catalogue number TKT-170-070E). Maximal levels of receptor expression were induced by addition of […] sodium butyrate for the last 18 hours of culture. The adherent cells were washed once with phosphate buffered saline (PBS, 50 ml per cell factory) and detached by the addition of 50 ml per cell factory of ice-cold membrane homogenisation buffer [20 mM HEPES (pH 7.4), 0.1 mM dithiothreitol, 1 mM EDTA, 0.1 mM phenyl methyl sulphonyl fluoride and 100 μg/ml bacitracin]. […] The final pellet was re-suspended in 4 ml of membrane homogenisation buffer per cell factory used and the protein content determined. […]
All assays were performed in Corning clear bottomed, white 96-well NBS plates (Fisher). […] (The optimum coating concentrations were determined for each batch of membranes) The beads were pelleted by centrifugation (800×g for 7 minutes at 4° C.), washed once with assay buffer (50 mM HEPES pH 7.4 containing 5 mM magnesium chloride) and finally re-suspended in assay buffer at a bead concentration of 10 mg/ml.
Each assay contained 20 μl of 6.25 nM [^3H]PGD2, 20 μl membrane saturated SPA beads both in assay buffer and 10 μl of compound solution or 13,14-dihydro-15-keto prostaglandin D2 (DK-PGD2, for determination of non-specific binding, Cayman chemical company). […] The assay plate was incubated at room temperature for 2 hours and counted on a Wallac Microbeta liquid scintillation counter (1 minute per well).

Row | pIC50 | SMILES
1 | 8.60 | CCS(=O)(=O)c1ccc(Sc2cc(Cl)ccc2SCC(=O)O)c(Cl)c1 [Example 5, [(4-Chloro-2-{[2-chloro-4-(ethylsulfonyl)phenyl]thio}phenyl)thio]acetic acid]
2 | 9.10 | CCS(=O)(=O)c1ccc(Oc2cc(Cl)ccc2SCC(=O)O)c(Cl)c1 [Example 7, ({4-Chloro-2-[2-chloro-4-(ethylsulfonyl)phenoxy]phenyl}thio)acetic acid]
3 | 8.60 | CCS(=O)(=O)Nc1ccc(Oc2cc(Cl)ccc2NCC(=O)O)c(Cl)c1 [Example 37, N-(4-Chloro-2-{2-chloro-4-[(ethylsulfonyl)amino]phenoxy}phenyl)glycine]
